Experimental data as given in patent US9090667B2, “Cyclic peptide from Nonomuraea sp., process for the production thereof, and pharmaceutical composition for the prevention or treatment of mycobacteria related disease comprising the same” (priority 2011, dated 2015).
In brackets after ≈: the same amount, converted by molar mass. Numbered stars: 1 amine (or outer) side, 2 acyl side, 3 side chain; on linkers, the order of the positions; unused ones are H or OH. Bridge positions count the residues as written; N and C are the ends. Square brackets hold non-standard residues; d marks the D form. Peptide text beside a SMILES is read from it. * marks the point of attachment. ξ: configuration not given here. NMeTrp(4-OMe) = CN[CH](Cc1c[nH]c2cccc(OC)c12)C(=O)O; X1 = O=C(C(N[*:1])C(O)c1ccccc1)[*:2]; NMeI = CC[CH](C)[CH](NC)C(=O)O; ξNMe2Val = CC(C)C(C(=O)*)N(C)C; NMeT = CN[CH](C(=O)O)[CH](C)O; NMeL = CN[CH](CC(C)C)C(=O)O; NMeV = CN[CH](C(=O)O)C(C)C

Legend:
[1] = tested on: M. tuberculosis strain resistant to isoniazid (INH)
[2] = tested on: M. tuberculosis strain resistant to capreomycin (CAP)
[3] = tested on: M. tuberculosis strain resistant to kanamycin (KM)
[4] = tested on: M. tuberculosis strain resistant to rifampin (RMP)
[5] = tested on: M. tuberculosis strain resistant to streptomycin (SM)
[6] = tested on: M. tuberculosis strain resistant to moxifloxacin (Mox)
[7] = tested on: M. tuberculosis strain resistant to cycloserine (CS)

Q: For `CCC(C)C(C(=O)NC1C(=O)N(C)C(C(C)O)C(=O)NC(C(C)C)C(=O)N(C)C(CC(C)C)C(=O)NC(C(C)C)C(=O)N(C)C(C(C)C)C(=O)N(C)C(Cc2c[nH]c3cccc(OC)c23)C(=O)NC(C(C)C)C(=O)NC(C(O)c2ccccc2)C(=O)NC(C(C)C)C(=O)OC1C)N(C)C(=O)C(NC(=O)C(C(C)C)N(C)C)C(C)C` (centres unmarked) [H-14] (ξNMe2Val-V[NMeI]T[NMeT]V[NMeL]V[NMeV][NMeTrp(4-OMe)]V[X1]V; ester 3-C; configuration not given here), which MIC [1] is on record?
A: Its MIC is less than 0.12 µM.

Q: What about the MIC [2] of the same compound?
A: The MIC was 0.29 µM (≈ 0.464 µg/mL).

Q: And the MIC [3]?
A: Its MIC is less than 0.12 µM.

Q: What about the MIC [4] of the same compound?
A: Its MIC is 0.19 µM (≈ 0.304 µg/mL).

Q: What about the MIC [5] of the same compound?
A: The MIC was less than 0.12 µM.

Q: And the MIC [6]?
A: Its MIC is 0.31 µM (≈ 0.496 µg/mL).

Q: What about the MIC [7] of the same compound?
A: The MIC was less than 0.12 µM.

Q: For `CCC(C)C(C(=O)NC1C(=O)N(C)C(C(C)O)C(=O)NC(C(C)C)C(=O)N(C)C(CC(C)C)C(=O)NC(C(C)C)C(=O)N(C)C(C(C)C)C(=O)N(C)C(Cc2c[nH]c3cccc(OC)c23)C(=O)NC(C(C)C)C(=O)NC(Cc2ccccc2)C(=O)NC(C(C)C)C(=O)OC1C)N(C)C(=O)C(NC(=O)C(C(C)C)N(C)C)C(C)C` (centres unmarked) [H-16] (ξNMe2Val-V[NMeI]T[NMeT]V[NMeL]V[NMeV][NMeTrp(4-OMe)]VFV; ester 3-C; configuration not given here), which MIC [1] is on record?
A: The MIC was less than 0.12 µM.

Q: And the MIC [2]?
A: The MIC was 0.3 µM (≈ 0.475 µg/mL).

Q: And the MIC [3]?
A: Its MIC is less than 0.12 µM.

Q: What about the MIC [4] of the same compound?
A: Its MIC is 0.18 µM (≈ 0.285 µg/mL).

Q: What about the MIC [5] of the same compound?
A: The MIC was less than 0.12 µM.

Q: And the MIC [6]?
A: The MIC was 0.3 µM (≈ 0.475 µg/mL).

Q: What about the MIC [7] of the same compound?
A: Its MIC is less than 0.12 µM.
